Test results taken from publication PMC10397409, “The action of physiological and synthetic steroids on the calcium channel CatSper in human sperm” (Frontiers in Cell and Developmental Biology, 2023).
Where two headings read alike, the source gives them in different places.

Tests used:
[1] = biological target: T1, CatSper (Homo sapiens, UniProt Q7RTX7+Q86XQ3+Q8NEC5+Q96P56); test: Cross-desensitization: P4 dose-response after pre-incubation with steroid at 10 µM; assay type: cell-based; conditions: in the presence of predicted steroid at 10 µM, normalized to DMSO; P4 = control curve; n = 3; read-out: EC50 generated from concentration-response curves of P4-induced [Ca2+]i influx
T1 construct: Motile spermatozoa were selected by a ‘swim-up’ procedure; endogenous in cells; host or cells: motile human spermatozoa (swim-up) from healthy donors

[2] = ref Löfgren and Bäckström (1990), cited from earlier work
[3] = system: human sperm; test: Sperm penetration in viscous media (modified Kremer test); assay type: cell-based; conditions: steroids 10 µM, P4 5 µM, 1 h, 1% methylcellulose
Procedure: The ability of sperm to penetrate in viscous media similar in viscosity to that found in the female reproductive tract was assessed using the modified Kremer test, as previously described ([Rahban et al., 2021]). Briefly, swim-up recovered and capacitated sperm cells at 3 x 10^6/mL were incubated in the absence (DMSO) or presence of steroids (10 µM), or P4 (5 µM) as a positive control for 1 h at 37°C. A glass capillary (0.2 × 4.0 × 50 mm, CM scientific, UK) was filled with 1% (w/v) methylcellulose (MC, 4000 centipoises cP) prepared with HTF media supplemented with 3 mg/mL HSA, respective compounds (10 µM), P4 (5 µM), or DMSO. The glass capillary tube was then sealed on one end with wax (Vitrex, UK) and added to the sperm cells on the open end. Sperm penetration was assessed after 1 h of incubation at 37°C by counting sperm at 1 cm using a microscope with a ×10 objective.

| SMILES | EC50 [1] [nM] | Maximum serum level ([2]; female) | Maximum serum level ([2]; male) | number of sperm penetrating viscous medium at 1 cm [3] |
| --- | --- | --- | --- | --- |
| CC(=O)[C@H]1CC[C@H]2[C@@H]3CCC4=CC(=O)CC[C@]4(C)[C@H]3CC[C@]12C [Progesterone] | 5 | 60 nM (female) | 3 nM (male) | – |
| C[C@]12Cc3c[nH]nc3C[C@@H]1CC[C@@H]1[C@@H]2CC[C@@]2(C)[C@H]1CC[C@]2(C)O [Stanozolol] | – | – | – | significant increase in cell number |
